# Reference: publication PMC4639711, “The Helicase Activity of Hyperthermophilic Archaeal MCM is Enhanced at High Temperatures by Lysine Methylation” (Frontiers in Microbiology, 2015)
# Experiments:
# Format in all cases: biochemical
# sisMCM (MCM) = target: T1, sisMCM (MCM) (Saccharolobus islandicus, UniProt F0NF15, K280M/K281M); assay: ATPase assay, [γ-32P]ATP, PEI cellulose TLC; conditions: 1 mM ATP, 100 nM protein, 10 mM magnesium acetate, pH 8.0, 65°C, 30 min; labelled compound; methylation-mimic mutant
# T1 construct: recombinant, pGEX-6P-1 in E. coli BL21(DE3) CodonPlus RIL; GST tag removed with PreScission protease; apparent mass 75 kDa; hexamer
# T1 sequence (F0NF15 entry or part of it K280M/K281M): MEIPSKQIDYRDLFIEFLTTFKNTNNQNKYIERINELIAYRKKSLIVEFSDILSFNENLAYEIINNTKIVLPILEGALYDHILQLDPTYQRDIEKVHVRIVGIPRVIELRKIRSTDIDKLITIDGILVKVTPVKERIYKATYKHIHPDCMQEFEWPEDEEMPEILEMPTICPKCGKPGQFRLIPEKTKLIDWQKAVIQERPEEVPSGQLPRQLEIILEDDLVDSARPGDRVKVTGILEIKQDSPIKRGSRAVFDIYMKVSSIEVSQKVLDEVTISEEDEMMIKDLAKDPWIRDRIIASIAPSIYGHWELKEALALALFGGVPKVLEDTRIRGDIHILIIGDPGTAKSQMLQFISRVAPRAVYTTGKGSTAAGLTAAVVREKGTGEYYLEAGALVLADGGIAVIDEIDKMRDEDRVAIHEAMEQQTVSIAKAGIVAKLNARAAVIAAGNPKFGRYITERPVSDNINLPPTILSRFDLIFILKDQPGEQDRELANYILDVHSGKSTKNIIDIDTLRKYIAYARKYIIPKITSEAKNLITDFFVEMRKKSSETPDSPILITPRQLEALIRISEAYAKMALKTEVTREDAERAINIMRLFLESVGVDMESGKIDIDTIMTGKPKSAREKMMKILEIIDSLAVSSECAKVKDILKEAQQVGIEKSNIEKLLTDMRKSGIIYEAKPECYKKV
# aKMT4 [1] = target: T2, aKMT4 (Saccharolobus islandicus, UniProt F0NBH8); assay: 3H-methyl incorporation into sisMCM, SDS-PAGE and autoradiography; conditions: methyl acceptor sisMCM (2 μM), also automethylation, 50°C, labelled compound
# T2 construct: gene SiRe_1449
# T2 sequence (F0NBH8 whole entry): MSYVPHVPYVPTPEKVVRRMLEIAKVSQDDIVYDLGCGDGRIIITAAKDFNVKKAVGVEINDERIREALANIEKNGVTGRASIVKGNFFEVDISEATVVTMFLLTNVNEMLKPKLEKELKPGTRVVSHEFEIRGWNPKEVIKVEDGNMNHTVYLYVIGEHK
# aKMT4 [2] = target: T3, aKMT4 (Saccharolobus islandicus, UniProt F0NBH8, G38R); assay: as above; conditions: methyl acceptor sisMCM (2 μM), 50°C, labelled compound, methyltransferase-deficient mutant, no activity seen
# T3 construct: gene SiRe_1449; recombinant, overexpressed in E. coli BL21(DE3) CodonPlus RIL; purified as in Niu et al. 2013; apparent mass 18 kDa
# T3 sequence (F0NBH8 whole entry G38R): as the sequence (F0NBH8 whole entry) above, with G38R counted along it
smiles,measurement,setting,value
Nc1ncnc2c1ncn2[C@@H]1O[C@H](COP(=O)(O)OP(=O)(O)OP(=O)(O)O)[C@@H](O)[C@H]1O [ATP],"ATPase assay, [γ-32P]ATP, PEI cellulose TLC",sisMCM (MCM),"As for ATPase, K280M/K281M showed moderately decreased activity as wild type"
C[S+](CC[C@H](N)C(=O)O)C[C@H]1O[C@@H](n2cnc3c(N)ncnc32)[C@H](O)[C@@H]1O (stereo partly drawn) [AdoMet],"3H-methyl incorporation into sisMCM, SDS-PAGE and autoradiography",aKMT4 [1],We noticed potent ^3H-methyl incorporation into sisMCM protein as well as aKMT4 itself
same,"3H-methyl incorporation into sisMCM, SDS-PAGE and autoradiography",aKMT4 [2],no tritium incorporation was observed in the presence of a methyltransferase-deficient mutant aKMT4-G38R
